Assay results: patent US7888523B2, “Preparation of platinum(II) complexes” (Platco Technologies (Proprietary) Limited, priority 2004, dated 2011)

Key:
breast cancer cells = assay: Anticancer testing, inhibition of breast cancer cells; format: cell-based; details: 100 μM solution, medium containing 10 mM glutathione
Method: (§1) Anticancer testing on the halogenoplatinum(II) complex of Example 8 was performed and compared with cisplatin. […] The corresponding values for cisplatin are 85.6% and 93.2%. The corresponding data on cervical cancer cells are 88.5 and 95.9% at 10 and 100 μM solutions. The corresponding values for cisplatin are 85.4 and 95% respectively. A further study in which 100 μM solutions were used in a medium containing 10 mM glutathione, the halogenoplatinum(II) complex performed even better, viz.

cervical cancer cells = assay: Anticancer testing, inhibition of cervical cancer cells; format: cell-based; details: for inhibition on cervical cancer cells: medium containing 10 mM glutathione
Method: as §1

[1] = Anti-cancer properties (test not specified); details: statement in words, no test details
colon cancer cells = assay: Anticancer testing, inhibition of colon cancer cells; format: cell-based; details: for inhibition on colon cells: medium containing 10 mM glutathione
Method: as §1

SMILES	inhibition on breast cancer cells (breast cancer cells)	percentage inhibition on cervical cancer cells (cervical cancer cells; 10 μM solution)	percentage inhibition on cervical cancer cells (cervical cancer cells; 100 μM solution)	inhibition on cervical cancer cells (cervical cancer cells; 100 μM solution)	anti-cancer properties [1]	percentage inhibition on colon cancer cells (colon cancer cells; 10 μM solution)	percentage inhibition on colon cancer cells (colon cancer cells; 100 μM solution)	inhibition on colon cells (colon cancer cells; 100 μM solution)
CSCc1nccn1C.[Cl][Pt][Cl] [Pt(mmtei)Cl2, bis-chloro-(1-methyl-2-methylthiomethyl-imidazole)platinum(II)]	66.1%	88.5%	95.9%	99.3%	exceptional anti-cancer properties	92.8%	97.0%	98.2%
N.N.[Cl][Pt][Cl] [cisplatin, reference compound]	14%	–	95%	58.6%	–	85.6%	93.2%	48.0%
